ChEMBL document CHEMBL4765295, “Synthesis, pharmacological profile and 2D-QSAR studies of curcumin-amino acid conjugates as potential drug candidates” (Eur J Med Chem, 2020)
“And” between values parts separate entries of the source, which are not always exact repeats. Equal entries are not always repeated.

Legend:
Rattus norvegicus [1] = assay: Antiinflammatory activity in Wistar rat model of carrageenan-induced paw edema assessed as reduction in thickness of paw edema at 10 mg/kg, ip pretreated for 1 hr followed by carrageenan challenge and measured after 1 hr (reference value: 2.41 +/-0.05 mm); assay type: functional; conditions: time 1 hr after carrageenan
Rattus norvegicus [2] = assay: Anti-inflammatory activity in Wistar rat assessed as inhibition of carrageenan-induced paw edema at 10 mg/kg, ip pretreated for 1 hr followed by carrageenan challenge and measured after 1 hr relative to control (reference value: 0.00 +/-0.02 %); assay type: functional; conditions: time 2 hrs
Rattus norvegicus [3] = assay: Antiinflammatory activity in Wistar rat model of carrageenan-induced paw edema assessed as reduction in thickness of paw edema at 10 mg/kg, ip pretreated for 1 hr followed by carrageenan challenge and measured after 2 hrs (reference value: 2.06 +/-0.09 mm); assay type: functional; conditions: time 3 hrs
Rattus norvegicus [4] = assay: Anti-inflammatory activity in Wistar rat assessed as inhibition of carrageenan-induced paw edema at 10 mg/kg, ip pretreated for 1 hr followed by carrageenan challenge and measured after 2 hr relative to control (reference value: 0.00 +/-0.03 %); assay type: functional; conditions: time 3 hrs
Rattus norvegicus [5] = assay: Antiinflammatory activity in Wistar rat model of carrageenan-induced paw edema assessed as reduction in thickness of paw edema at 10 mg/kg, ip pretreated for 1 hr followed by carrageenan challenge and measured after 3 hrs (reference value: 1.79 +/-0.07 mm); assay type: functional; conditions: time 4 hrs
Rattus norvegicus [6] = assay: Anti-inflammatory activity in Wistar rat assessed as inhibition of carrageenan-induced paw edema at 10 mg/kg, ip pretreated for 1 hr followed by carrageenan challenge and measured after 3 hr relative to control (reference value: 0.00 +/-0.1 %); assay type: functional; conditions: time 4 hrs
Rattus norvegicus [7] = assay: Antiinflammatory activity in Wistar rat model of carrageenan-induced paw edema assessed as reduction in thickness of paw edema at 10 mg/kg, ip pretreated for 1 hr followed by carrageenan challenge and measured after 4 hrs (reference value: 1.40 +/-0.10 mm); assay type: functional; conditions: time 5 hrs
Rattus norvegicus [8] = assay: Anti-inflammatory activity in Wistar rat assessed as inhibition of carrageenan-induced paw edema at 10 mg/kg, ip pretreated for 1 hr followed by carrageenan challenge and measured after 4 hr relative to control (reference value: 0.00 +/-0.4 %); assay type: functional; conditions: time 5 hrs
Rattus norvegicus [9] = assay: Antiinflammatory activity in Wistar rat model of carrageenan-induced paw edema assessed as reduction in thickness of paw edema at 10 mg/kg, ip pretreated for 1 hr followed by carrageenan challenge and measured after 24 hrs (reference value: 0.83 +/-0.08 mm); assay type: functional; conditions: time 25 hrs
Rattus norvegicus [10] = assay: Anti-inflammatory activity in Wistar rat assessed as inhibition of carrageenan-induced paw edema at 10 mg/kg, ip pretreated for 1 hr followed by carrageenan challenge and measured after 24 hr relative to control (reference value: 0.00 +/-0.3 %); assay type: functional; conditions: time 25 hrs
Rattus norvegicus [11] = assay: Anti-inflammatory activity in Wistar rat assessed as inhibition of carrageenan-induced paw edema at 10 mg/kg, ip pretreated for 1 hr followed by carrageenan challenge and measured after 4 hr relative to indomethacin; assay type: functional; conditions: time 5 hrs
[12] = Ulcerogenic activity in fasted albino mouse assessed as incidence of gastric ulceration at 10 mg/kg, po for 3 days (reference value: 0 %); assay type: toxicity, organism-based; conditions: in vivo, 72 h, time 3 day
[13] = Ulcerogenic activity in fasted albino mouse assessed as average number of ulcers in gastric mucosa at 10 mg/kg, po for 3 days (reference value: 0); assay type: toxicity, organism-based; conditions: in vivo, 72 h, time 3 day
[14] = Ulcerogenic activity in fasted albino mouse assessed as average severity of ulcers in gastric mucosa at 10 mg/kg, po for 3 days (reference value: 0); assay type: toxicity, organism-based; conditions: in vivo, 72 h, time 3 day
[15] = Ulcerogenic activity in fasted albino mouse assessed as ulcer index in gastric mucosa at 10 mg/kg, po for 3 days (reference value: 0); assay type: toxicity, organism-based; conditions: in vivo, 72 h, time 3 day
Splenocyte [16] = assay: Immunomodulatory activity in Swiss albino mouse splenocytes assessed as cell viability at 10 uM by measuring stimulation index incubated for 72 hrs in presence of mitogenic stimulus phytohaemagglutinin by MTT assay (reference value: 1.00 +/- 0.24); assay type: functional
Splenocyte [17] = assay: Immunomodulatory activity in Swiss albino mouse splenocytes assessed as cell viability at 10 uM by measuring inhibition of stimulation index incubated for 72 hrs in presence of mitogenic stimulus phytohaemagglutinin by MTT assay relative to indomethacin; assay type: functional; conditions: read-out: Activity
Peritoneal macrophage [18] = assay: Antiinflammatory activity in […] mouse Peritoneal macrophages assessed as reduction in LPS-induced NO production by measuring reduction in stimulation index at 10 uM preincubated for 1 hr followed by LPS stimulation measured after 24 hrs by Griess method (reference value: 27.31 +/- 2.56 uM); assay type: functional; conditions: time 25 hrs
Peritoneal macrophage [19] = assay: Antiinflammatory activity in […] mouse Peritoneal macrophages assessed as inhibition of LPS-induced NO production at 10 uM preincubated for 1 hr followed by LPS stimulation measured after 24 hrs by Griess method relative to control (reference value: 0.0 %); assay type: functional; set-up: scale not given: the % may be the effect or the level left; conditions: time 25 hrs
Mus musculus [20] = assay: Analgesic activity in albino mouse assessed reduction in acetic acid-induced abdominal writhing by measuring writing reflex at 10 mg/kg, ip pretreated for 1 hr followed by acetic acid challenge and measured starting 5 mins post acetic acid challenge for 10 mins (reference value: 42.4 +/- 1.02); assay type: functional; conditions: time 75 min, 1.25 h
Mus musculus [21] = assay: Analgesic activity in albino mouse assessed protection against acetic acid-induced abdominal writhing at 10 mg/kg, ip pretreated for 1 hr followed by acetic acid challenge and measured starting 5 mins post acetic acid challenge for 10 mins relative to control (reference value: 0 %); assay type: functional; conditions: time 75 min, 1.25 h
Mus musculus [22] = assay: Analgesic activity in albino mouse assessed protection against acetic acid-induced abdominal writhing at 10 mg/kg, ip pretreated for 1 hr followed by acetic acid challenge and measured starting 5 mins post acetic acid challenge for 10 mins relative to indomethacin; assay type: functional; conditions: time 75 min, 1.25 h
Mus musculus [23] = assay: Analgesic activity in albino mouse assessed as forepaw licking/jumping latency time at 10 mg/kg, ip measured after 30 mins by hot plate test (reference value: 5.02 +/- 0.09 sec); assay type: functional; conditions: 0.5 h
Mus musculus [24] = assay: Analgesic activity in albino mouse assessed as protection at 10 mg/kg, ip measured after 30 mins by hot plate test (reference value: 0 %); assay type: functional; conditions: 0.5 h
Mus musculus [25] = assay: Analgesic activity in albino mouse assessed as forepaw licking/jumping latency time at 10 mg/kg, ip measured after 60 mins by hot plate test (reference value: 3.42 +/- 0.03 sec); assay type: functional; conditions: 1 h
Mus musculus [26] = assay: Analgesic activity in albino mouse assessed as protection at 10 mg/kg, ip measured after 60 mins by hot plate test (reference value: 0 %); assay type: functional; conditions: 1 h
Mus musculus [27] = assay: Analgesic activity in albino mouse assessed as forepaw licking/jumping latency time at 10 mg/kg, ip measured after 90 mins by hot plate test (reference value: 2.72 +/- 0.01 sec); assay type: functional; conditions: 1.5 h
Mus musculus [28] = assay: Analgesic activity in albino mouse assessed as protection at 10 mg/kg, ip measured after 90 mins by hot plate test (reference value: 0 %); assay type: functional; conditions: 1.5 h
Mus musculus [29] = assay: Analgesic activity in albino mouse assessed as forepaw licking/jumping latency time at 10 mg/kg, ip measured after 120 mins by hot plate test (reference value: 2.62 +/- 0.06 sec); assay type: functional; conditions: 2 h
Mus musculus [30] = assay: Analgesic activity in albino mouse assessed as protection at 10 mg/kg, ip measured after 120 mins by hot plate test (reference value: 0 %); assay type: functional; conditions: 2 h
Mus musculus [31] = assay: Analgesic activity in albino mouse assessed as protection at 10 mg/kg, ip measured after 120 mins by hot plate test relative to indomethacin; assay type: functional; conditions: 2 h
Staphylococcus aureus = assay: Antibacterial activity against Staphylococcus aureus ATCC 25923 incubated for 18 hrs by agar dilution method; assay type: functional
Streptococcus pyogenes = assay: Antibacterial activity against Streptococcus pyogenes ATCC 19615 incubated for 18 hrs by agar dilution method; assay type: functional
Salmonella typhimurium = assay: Antibacterial activity against Salmonella typhimurium ATCC 19430 incubated for 18 hrs by agar dilution assay; assay type: functional, Salmonella enterica subsp. enterica serovar Typhimurium; conditions: Salmonella enterica
Pseudomonas aeruginosa = assay: Antibacterial activity against Pseudomonas aeruginosa ATCC 27853 incubated for 18 hrs by agar dilution assay; assay type: functional
Candida albicans = assay: Antifungal activity against Candida albicans incubated for 18 to 24 hrs by CLSI method; assay type: functional; conditions: time 18-24 hrs
A549 = assay: Antiproliferative activity against human A549 cells assessed as inhibition of cell growth after 72 hrs by MTT assay; assay type: functional, cell-based; conditions: A549, 72 h
MCF7 = assay: Antiproliferative activity against human MCF7 cells assessed as inhibition of cell growth after 72 hrs by MTT assay; assay type: functional, cell-based; conditions: MCF7, 72 h
PC-3 = assay: Antiproliferative activity against human PC3 cells assessed as inhibition of cell growth after 72 hrs by MTT assay; assay type: functional, cell-based; conditions: PC-3, 72 h
[32] = Toxicity in albino mouse assessed as induction of toxic symptoms at 50 to 100 mg/kg, ip measured after 24 hrs; assay type: organism-based; conditions: in vivo, dose 50-100 mg/kg

SMILES | Activity (Rattus norvegicus [1]) | inhibition in vivo at 10 mg/kg (Rattus norvegicus [2]) | Activity (Rattus norvegicus [3]) | inhibition in vivo at 10 mg/kg (Rattus norvegicus [4]) | Activity (Rattus norvegicus [5]) | inhibition in vivo at 10 mg/kg (Rattus norvegicus [6]) | Activity (Rattus norvegicus [7]) | inhibition in vivo at 10 mg/kg (Rattus norvegicus [8]) | Activity (Rattus norvegicus [9]) | inhibition in vivo at 10 mg/kg (Rattus norvegicus [10]) | inhibition in vivo at 10 mg/kg (Rattus norvegicus [11]) | Activity [12] | Activity [13] | Activity [14] | UI [15] | Activity_index (Splenocyte [16]) | viability at 10 µM (Splenocyte [17]) | Activity (Peritoneal macrophage [18]) | Activity (Peritoneal macrophage [19]) | Activity (Mus musculus [20]) | other results
COc1cc(/C=C/C(=O)/C=C(O)/C=C/c2ccc(OC(=O)CCN)c(OC)c2)ccc1OC(=O)CCN.Cl.Cl | 0.74 mm | 69% | 0.6 mm | 71% | 0.42 mm | 77% | 0.16 mm | 89% | 0.23 mm | 72% | 102% | 0% | 0 | 0 | 0 | 1.39 | 87.4% | 15.93 µM | 41.68% | 25.6 | Activity (Mus musculus [21]): 39.6%; Activity (Mus musculus [22]): 64.3%; Time (Mus musculus [23]): 5.46 s; Activity (Mus musculus [24]): 8.8%; Time (Mus musculus [25]): 5.2 s; Activity (Mus musculus [26]): 52%; Time (Mus musculus [27]): 4.16 s; Activity (Mus musculus [28]): 52.9%; Time (Mus musculus [29]): 3.56 s; Activity (Mus musculus [30]): 35.9%; Activity (Mus musculus [31]): 85.5%; MIC (Staphylococcus aureus): 1 µg/mL and 1.71 µM; MIC (Streptococcus pyogenes): 1 µg/mL and 1.71 µM; MIC (Salmonella typhimurium): 1 µg/mL and 1.71 µM; MIC (Pseudomonas aeruginosa): 1 µg/mL and 1.71 µM; MIC (Candida albicans): 0.5 µg/mL and 0.857 µM; IC50 (A549): 32.4 µM; IC50 (MCF7): 9.36 µM; IC50 (PC-3): 30.2 µM; Activity [32]: Non-Toxic
COc1cc(/C=C/C(=O)/C=C(O)/C=C/c2ccc(OC(=O)[C@H](N)CCSC)c(OC)c2)ccc1OC(=O)[C@H](N)CCSC.Cl.Cl | 0.99 mm | 59% | 0.95 mm | 54% | 0.62 mm | 65% | 0.03 mm | 98% | 0.54 mm | 35% | 113% | 0% | 0 | 0 | 0 | 1.01 | 120% | 13.77 µM | 49.57% | 19.8 | Activity (Mus musculus [21]): 53.3%; Activity (Mus musculus [22]): 86.5%; Time (Mus musculus [23]): 5.36 s; Activity (Mus musculus [24]): 6.8%; Time (Mus musculus [25]): 4.78 s; Activity (Mus musculus [26]): 39.8%; Time (Mus musculus [27]): 3.36 s; Activity (Mus musculus [28]): 23.5%; Time (Mus musculus [29]): 3.22 s; Activity (Mus musculus [30]): 22.9%; Activity (Mus musculus [31]): 54.5%; MIC (Staphylococcus aureus): 0.125 µg/mL and 0.178 µM; MIC (Streptococcus pyogenes): 0.25 µg/mL and 0.355 µM; MIC (Salmonella typhimurium): 0.25 µg/mL and 0.355 µM; MIC (Pseudomonas aeruginosa): 1 µg/mL and 1.42 µM; MIC (Candida albicans): 1 µg/mL and 1.42 µM; IC50 (A549): 20 µM; IC50 (MCF7): 10.2 µM; IC50 (PC-3): 41.5 µM; Activity [32]: Non-Toxic
